{"source": "patent US7786097B2", "about": "“Tricyclic compounds, compositions and methods” (Pfizer Inc., priority 2007, dated 2010)", "key": {"[1]": {"system": "IL-6 production in human whole blood", "experiment": "Ex vivo LPS-stimulated human whole blood, IL-6", "assay_type": "cell-based", "settings": "LPS 100 ng/ml, 22 hours, mean of two donors", "method": "Venous blood from human donors was collected as 10 ml aliquots in tubes containing sodium heparin (BD Vacutainer from Becton Dickinson and Company, Franklin Lakes, N.Y.). Blood was added to sterile polystyrene round bottom 96-well tissue culture plates (Corning Costar) at 100 μl/well, omitting the outside wells. Media (RPMI Medium 1640 with L-glutamine, Invitrogen Corporation, Carlsbad, Calif.) was added to the blood in 90 μl aliquots for a total volume of 190 μl. Outside wells were filled with 200 μl of media. Blood was placed in a humidified 37° C. incubator with 5% CO2 while compounds were prepared (nearly 60 minutes).\nCompounds were prepared from 10 mM stock solutions in dimethylsulfoxide (DMSO, Sigma-Aldrich). […] Final DMSO and ethanol concentrations in the assay were 0.1% and 1.5%. The samples were gently triturated twice to mix and replaced in the incubator. LPS stock (E. coli serotype 0111:B4, Sigma-Aldrich), stored in aliquots of 100 μg/ml in RPMI at −20° C., was diluted 1/50 in RPMI to make a working stock solution. After 60 minutes of incubation, 10 μl of the prepared LPS working stock was added to the blood to a final concentration of 100 ng/ml, omitting wells to be used as negative control. The samples were again gently triturated and the plates incubated overnight for 22 hours. Following incubation, the blood was centrifuged at 1500×g for 5 minutes and the plasma removed to either freeze at −20° C. or assay for cytokine release.\nIL-1β, IFNγ, IL-6, and TNFα protein levels were measured using Meso Scale assay kits (Meso Scale Discovery, Gaithersburg, Md.). Reagents were allowed to come to room temperature. Meso Scale plates were blocked with 30 μl of human plasma/serum assay diluent with gentle shaking for 60 minutes at room temperature. Plates were washed 3× with wash buffer (PBS, Invitrogen Corporation, with 0.05% Tween-20, Sigma-Aldrich). Calibrators for standard curves were prepared in human plasma/serum assay diluent as a […] serial dilution to achieve final concentrations ranging from 50000 pg/ml to 3.2 pg/ml. Samples and calibrators were added at 20 μl/well, then incubated at room temperature with gentle shaking for 90 minutes. Plates were again washed 3 times with wash buffer. Detection antibody was diluted in human plasma/serum antibody diluent to 1 μg/ml and added to the plate at 20 μl/well. Plates were incubated as before for 60 minutes and washed again. Read Buffer T<4×) was diluted 1:1 with mqH2O to 2 times concentration and 150 μl added to each well. Plates were analyzed on the SECTOR Imager 6000 (Meso Scale Discovery) to generate raw signal values.\nIL-1β, IFN-γ, IL-6, and TNFα sample values were verified to be within the calibrator standard curves. Individual values were compared to positive and negative controls (vehicle treated blood with LPS and vehicle treated blood without LPS, respectively) to generate % inhibition. Triplicate values were averaged for each donor. The values for two donors were averaged (only one donor was used for IL-1β) and graphed using 4-parameter fit curves in the GraFit 5.0.11 application."}, "[2]": {"system": "Mouse Collagen-Induced Arthritis (mCIA)", "experiment": "Therapeutic mouse collagen-induced arthritis (mCIA) model", "assay_type": "in vivo, Male DBA/J mice", "settings": "mice, dosing day 34 through day 49", "excerpt": "Mouse Collagen-induced arthritis is a commonly used chronic, preclinical model of rheumatoid arthritis in which joint swelling and bone destruction occur following immunization with type II collagen. Reduction of disease incidence and severity has been shown previously to be predictive of disease-modification and signs and symptoms mitigation, respectively, in a clinical setting.\nIn the therapeutic mCIA model, induction of disease incidence and severity was synchronized via LPS stimulation. Male DBA/J mice were immunized with 100 ug of bovine type II collagen (bCII) on day 0. All mice received an intraperitoneal injection of 20 μg of LPS on day 28 and disease was allowed to develop through day 34. At day 34, all mice had disease (incidence=100%) with an average severity score of seven. Dosing of compounds was initiated in the therapeutic mode on day 34 and continued through day 49. Different treatments were compared by measuring the decrease in incidence (i.e., resolution of disease) and the decrease in severity of paw swelling over time."}, "LPS-induced serum TNFα": {"system": "LPS-induced serum TNFα", "experiment": "LPS-induced serum TNFα suppression, 28-day repeat dose mouse model", "assay_type": "in vivo, Swiss Webster female mice", "settings": "mice, oral gavage 28 days", "method": "(§1) The compounds were weighed and suspended in a vehicle of 0.5% methylcellulose/0.025% tween 20 (Sigma-Aldrich, St. Louis, Mo.). Compound suspensions were homogenized using a Polytron PT-3100 tissue homogenizer to create a very fine suspension and were then sonicated for 10 minutes using a water bath sonicator. Aliquots of each suspension were made for daily dosing at 0.2 ml/dose. Swiss Webster female mice, 10-12 weeks old, 28-29 grams, (Taconic, Germantown, N.Y.) were used in accordance with the guidelines of the Institutional Animal Care and Use Committee and in accordance with NIH guidelines on laboratory animal welfare. Mice were acclimated in the Pfizer animal facility for three to seven days prior to being utilized in a study. […] Each treatment group contained 5-10 mice. To establish a dosing regimen for the studies, a pilot pharmacodynamic time course experiment was conducted to quantify TNFα repression after a single ED80 dose.\n(§2) Body weights were measured on the first and last day of each experiment. Blood samples were obtained after three weeks of dosing for a steady-state pharmacokinetic (PK) analysis. To assess compound effects on LPS-induced TNFα, all mice received an intraperitoneal injection of LPS (Salmonella typhosa, L-7895; Sigma-Aldrich, St. Louis) 2.5 hr after the last dose on day 28. Mice were sacrificed 90 minutes after LPS administration. Serum samples were quantified for osteocalcin and TNFα using the multiplex assays (Linco Research, Inc, St. Charles, Mo.; Luminex 100, Austin, Tex.). Samples were diluted 1:20 and the assay was run according to manufacturer's instructions. The osteocalcin standard was purchased separately (Biomedical Technologies Inc., Stoughton, Mass.). Mice were fasted for 4 hours before serum was collected for TNFα, and osteocalcin levels. For each experiment, outliers were detected by calculating the number of standard deviations from the mean of the group. If the value being examined was more than 2.5 standard deviations from the mean, it was excluded from the rest of the calculations.\n(§3) The individual mouse percent inhibition values were fit to a four-parameter logistic model using the dose mean for each group.\n(§4) ED50 and ED80 values were obtained for the various endpoints using a four-parameter logistic fit. For compounds which were tested multiple times, ED50 and ED80 values were obtained using four-parameter logistic fits of the combined data from multiple experiments."}, "Serum osteocalcin": {"system": "Serum osteocalcin", "experiment": "Serum osteocalcin suppression, 28-day repeat dose mouse model", "assay_type": "in vivo, Swiss Webster female mice", "settings": "mice", "method": "as §1, §2, §3, §4"}}}
{"smiles": "C[C@]12C=CC(=O)C=C1CC[C@@H]1[C@@H]2[C@@H](O)C[C@@]2(C)[C@H]1CC[C@]2(O)C(=O)CO", "note": "[Prednisolone]", "values": [{"measurement": "inhibition at 0.000457247 µM", "setting": "[1]; 0.457247 nM", "value": 2.22, "unit": "%"}, {"measurement": "inhibition at 0.00137174 µM", "setting": "[1]; 1.371742 nM", "value": -0.941, "unit": "%"}, {"measurement": "inhibition at 0.00411523 µM", "setting": "[1]; 4.115226 nM", "value": -0.232, "unit": "%"}, {"measurement": "inhibition at 0.0123457 µM", "setting": "[1]; 12.34568 nM", "value": -0.417, "unit": "%"}, {"measurement": "inhibition at 0.037037 µM", "setting": "[1]; 37.03704 nM", "value": 5.03, "unit": "%"}, {"measurement": "inhibition at 0.111111 µM", "setting": "[1]; 111.1111 nM", "value": 11.7, "unit": "%"}, {"measurement": "inhibition at 0.333333 µM", "setting": "[1]; 333.3333 nM", "value": 40.3, "unit": "%"}, {"measurement": "inhibition at 1 µM", "setting": "[1]; 1000 nM", "value": 62.1, "unit": "%"}, {"measurement": "Therapeutic mCIA (ED80 dose)", "setting": "[2]", "value": 5.5, "unit": "mg/kg"}, {"measurement": "TNFα Suppression (ED80 dose)", "setting": "LPS-induced serum TNFα", "value": 2.10, "unit": "mg/kg"}, {"measurement": "Serum osteocalcin EAUC50", "setting": "Serum osteocalcin; AUC 0-4 hr", "value": 560, "unit": "ng·h/mL"}, {"measurement": "Serum osteocalcin EAUC80", "setting": "Serum osteocalcin; AUC 0-4 hr", "value": 1600, "unit": "ng·h/mL"}, {"measurement": "Osteocalcin Suppression (ED80 dose)", "setting": "Serum osteocalcin; oral gavage 28 days, serum osteocalcin", "value": 6.80, "unit": "mg/kg"}]}
